According to ChEMBL document CHEMBL1201862, “PubChem BioAssay data set” (2004):
Activity calls are given as the source filed them.

Experiments:
[1] = biological target: Induced myeloid leukemia cell differentiation protein Mcl-1 (Homo sapiens, UniProt Q07820); format: functional
[2] = Shn3 3'UTR reporter inhibitors, dose response, cell-based, Clone20 osteoblasts, firefly luciferase, cherry-picked (AID 624132); format: functional;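 also: firefly luciferase luminescence from reporter carrying the Shn3 3'UTR in osteoblasts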
[3] = HepG2 cell cytotoxicity, dose response, cytotoxicity control for Shn3 inhibitor project, CellTiter-Glo, cherry-picked (AID 624134); format: functional, cell-based
[4] = control 3'UTR Renilla luciferase suppression, dose response, counter-screen for Shn3 inhibitor project, cell-based, Clone20-Shn3RL, cherry-picked (AID 624133); format: functional
[5] = biological target: T1, Short transient receptor potential channel 4 (Mus musculus, UniProt Q9QUQ5); assay: mouse TRPC4 channel activators, dose response, cell-based, HEK293 TRPC4/mu-opioid, Fluo-4 calcium (AID 434937); format: functional
T1 sequence (Q9QUQ5 whole entry): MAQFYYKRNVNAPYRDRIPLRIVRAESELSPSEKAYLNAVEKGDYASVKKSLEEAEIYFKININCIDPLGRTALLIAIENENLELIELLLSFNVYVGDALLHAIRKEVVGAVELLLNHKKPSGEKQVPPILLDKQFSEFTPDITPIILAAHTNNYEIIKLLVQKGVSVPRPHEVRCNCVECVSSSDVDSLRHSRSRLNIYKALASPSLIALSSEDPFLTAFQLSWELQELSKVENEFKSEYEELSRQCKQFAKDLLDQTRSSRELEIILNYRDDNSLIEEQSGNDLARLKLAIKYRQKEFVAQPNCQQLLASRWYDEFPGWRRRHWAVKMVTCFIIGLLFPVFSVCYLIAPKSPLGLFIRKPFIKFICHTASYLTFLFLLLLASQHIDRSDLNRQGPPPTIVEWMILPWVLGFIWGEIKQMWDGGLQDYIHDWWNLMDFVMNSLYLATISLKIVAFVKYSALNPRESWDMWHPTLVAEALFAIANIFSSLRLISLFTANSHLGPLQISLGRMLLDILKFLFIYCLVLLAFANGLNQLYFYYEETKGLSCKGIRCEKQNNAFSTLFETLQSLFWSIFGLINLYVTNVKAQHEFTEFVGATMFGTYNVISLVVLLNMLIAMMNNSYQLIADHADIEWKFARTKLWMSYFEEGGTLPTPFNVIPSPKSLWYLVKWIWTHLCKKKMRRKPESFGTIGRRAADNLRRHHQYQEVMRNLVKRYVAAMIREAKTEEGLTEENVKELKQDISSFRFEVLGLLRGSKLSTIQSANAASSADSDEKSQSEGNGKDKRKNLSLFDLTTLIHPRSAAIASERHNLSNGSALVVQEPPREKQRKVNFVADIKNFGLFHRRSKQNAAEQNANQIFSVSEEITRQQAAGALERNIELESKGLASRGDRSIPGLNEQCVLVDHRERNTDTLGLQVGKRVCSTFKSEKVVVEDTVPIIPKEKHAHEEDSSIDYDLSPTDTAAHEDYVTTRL

Leucine aminopeptidase = biological target: T2, Leucine aminopeptidase (Plasmodium falciparum 3D7, UniProt Q8IL11); assay: P. falciparum M17LAP inhibitors, primary screen, biochemical, fluorogenic H-Leu-NHMec substrate, 1536-well (AID 1619); format: functional
T2 sequence (Q8IL11 whole entry): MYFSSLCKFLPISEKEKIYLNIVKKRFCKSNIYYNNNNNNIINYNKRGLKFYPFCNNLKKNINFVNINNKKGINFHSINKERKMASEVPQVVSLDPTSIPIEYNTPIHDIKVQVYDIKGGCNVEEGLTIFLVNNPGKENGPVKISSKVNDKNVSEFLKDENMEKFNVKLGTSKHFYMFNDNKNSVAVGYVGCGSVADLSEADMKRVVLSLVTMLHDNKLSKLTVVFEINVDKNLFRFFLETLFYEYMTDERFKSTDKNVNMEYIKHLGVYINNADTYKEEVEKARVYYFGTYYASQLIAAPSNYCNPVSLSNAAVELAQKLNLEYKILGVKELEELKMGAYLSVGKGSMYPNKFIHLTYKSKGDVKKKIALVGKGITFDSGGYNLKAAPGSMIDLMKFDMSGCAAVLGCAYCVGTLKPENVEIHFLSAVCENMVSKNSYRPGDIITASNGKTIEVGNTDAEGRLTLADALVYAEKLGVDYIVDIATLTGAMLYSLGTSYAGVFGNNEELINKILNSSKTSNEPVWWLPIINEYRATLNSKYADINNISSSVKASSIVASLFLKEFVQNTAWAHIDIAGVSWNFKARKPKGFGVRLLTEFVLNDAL

[6] = biological target: T3, Polyadenylate-binding protein 1 (Homo sapiens, UniProt P11940); assay: PABP1 MLLE–PAM2 interaction inhibitors, dose response, miRNA deadenylation inhibitor project, biochemical, fluorescence polarization, Cy5-PAM2 peptide, secondary (AID 602260); format: functional; settings: read-out: IC50_Mean
T3 sequence (P11940 whole entry): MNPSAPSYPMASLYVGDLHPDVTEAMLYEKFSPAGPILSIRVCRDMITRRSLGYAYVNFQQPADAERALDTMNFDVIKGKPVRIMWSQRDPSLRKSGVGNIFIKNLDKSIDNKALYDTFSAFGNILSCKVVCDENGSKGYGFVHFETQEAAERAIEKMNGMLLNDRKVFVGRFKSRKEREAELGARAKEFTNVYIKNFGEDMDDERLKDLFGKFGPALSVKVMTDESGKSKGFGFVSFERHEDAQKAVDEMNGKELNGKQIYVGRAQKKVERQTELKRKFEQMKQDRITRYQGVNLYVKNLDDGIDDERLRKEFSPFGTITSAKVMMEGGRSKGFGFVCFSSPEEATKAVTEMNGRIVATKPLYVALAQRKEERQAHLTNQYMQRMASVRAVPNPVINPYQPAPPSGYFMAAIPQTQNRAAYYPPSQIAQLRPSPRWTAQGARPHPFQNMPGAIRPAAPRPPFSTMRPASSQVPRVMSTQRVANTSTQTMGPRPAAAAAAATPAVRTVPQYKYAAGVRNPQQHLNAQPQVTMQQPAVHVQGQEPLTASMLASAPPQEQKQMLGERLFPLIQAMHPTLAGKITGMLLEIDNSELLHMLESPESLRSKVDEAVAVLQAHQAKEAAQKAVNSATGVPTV

[7] = biological target: T3, Polyadenylate-binding protein 1; assay: PABP1 MLLE–PAM2 binding inhibitor potency, dose response, biochemical, fluorescence polarization, FITC-PAM2 peptide (AID 602259); format: functional; settings: read-out: IC50_Mean
[8] = biological target: T4, RNA-binding protein pos-1 (Caenorhabditis elegans, UniProt G5EF15); assay: inhibitors of POS-1/mex-3 RNA binding, dose response, biochemical, fluorescence polarization (AID 1964);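 also: purified POS-1 fused to maltose binding protein made in E. coli; potency of compounds blocking POS-1 binding to fluorescent RNA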
T4 sequence (G5EF15 whole entry): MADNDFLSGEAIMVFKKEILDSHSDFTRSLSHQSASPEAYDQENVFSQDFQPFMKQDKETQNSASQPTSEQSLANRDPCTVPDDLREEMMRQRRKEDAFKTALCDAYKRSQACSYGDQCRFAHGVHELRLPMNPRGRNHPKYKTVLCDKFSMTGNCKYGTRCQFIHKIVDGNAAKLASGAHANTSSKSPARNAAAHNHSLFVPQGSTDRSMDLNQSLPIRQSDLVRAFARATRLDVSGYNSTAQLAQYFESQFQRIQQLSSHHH

[9] = biological target: T5, Zinc finger protein mex-5 (Caenorhabditis elegans, UniProt Q9XUB2); assay: MEX-5/TCR-2 RNA interaction inhibitors, dose response, biochemical, C. elegans, fluorescence polarization (AID 1960)
T5 sequence (Q9XUB2 whole entry): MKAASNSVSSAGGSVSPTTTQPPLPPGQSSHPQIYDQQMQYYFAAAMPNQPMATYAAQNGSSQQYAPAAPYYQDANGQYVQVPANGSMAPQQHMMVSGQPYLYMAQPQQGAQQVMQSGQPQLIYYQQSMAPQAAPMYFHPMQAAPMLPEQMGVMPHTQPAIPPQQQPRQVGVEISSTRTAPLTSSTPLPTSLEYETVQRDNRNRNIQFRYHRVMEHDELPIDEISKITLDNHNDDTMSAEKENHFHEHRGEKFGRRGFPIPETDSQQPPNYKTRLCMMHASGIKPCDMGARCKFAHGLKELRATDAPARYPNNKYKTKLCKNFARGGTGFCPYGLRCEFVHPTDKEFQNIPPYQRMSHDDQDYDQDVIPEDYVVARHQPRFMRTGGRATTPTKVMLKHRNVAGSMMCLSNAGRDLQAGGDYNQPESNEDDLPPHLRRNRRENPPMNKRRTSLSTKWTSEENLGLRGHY

HEK293 = assay: inhibitors of LMP1-driven NF-kB reporter, dose response, cell-based, HEK293, luciferase, cherry-pick (AID 588343); format: functional; settings: Homo sapiens
[10] = biological target: T6, Heat shock factor protein 1 (Mus musculus, UniProt P38532); assay: inhibition of MG132-induced HSE-luciferase signal, confirmation, cell-based, NIH3T3, luminescence, dose retest (AID 2382); format: functional;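 also: NIH3T3 fibroblasts with HSF1-driven luciferase reporter stressed by proteasome inhibitor MG132; luminescence from HSF1-driven luciferase expression after 8 hours of MG132 stress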
T6 sequence (P38532 whole entry): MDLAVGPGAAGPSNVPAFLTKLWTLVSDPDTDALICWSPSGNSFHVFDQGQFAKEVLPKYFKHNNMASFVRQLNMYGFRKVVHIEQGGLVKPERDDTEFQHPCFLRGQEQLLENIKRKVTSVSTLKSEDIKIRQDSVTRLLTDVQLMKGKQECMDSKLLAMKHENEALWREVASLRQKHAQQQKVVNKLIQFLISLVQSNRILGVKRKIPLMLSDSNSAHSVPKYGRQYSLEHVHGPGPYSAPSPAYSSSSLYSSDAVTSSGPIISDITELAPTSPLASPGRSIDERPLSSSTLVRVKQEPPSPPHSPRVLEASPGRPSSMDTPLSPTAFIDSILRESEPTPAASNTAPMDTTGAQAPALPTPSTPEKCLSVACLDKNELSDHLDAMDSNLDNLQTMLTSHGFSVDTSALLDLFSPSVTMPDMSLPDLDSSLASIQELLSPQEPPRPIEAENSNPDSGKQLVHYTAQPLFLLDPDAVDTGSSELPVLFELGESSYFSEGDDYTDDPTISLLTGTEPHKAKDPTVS

[11] = tested on: Streptococcus sp. 'group A'; assay: growth inhibition of control SK(-) GAS strain, dose response, counter-screen for streptokinase expression inhibitor project, luminescence, kanamycin, BacTiterGlo, confirmation (AID 1900); format: functional, organism-based
Streptococcus = assay: Group A Streptococcus viability loss, dose response, counter-screen for streptokinase expression inhibitor project, luminescence, BacTiterGlo (AID 1915); format: functional, organism-based;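 also: potency for reduction of bacterial viability or growth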

Induced myeloid leukemia cell differentiation protein Mcl-1, sequence (Q07820 whole entry): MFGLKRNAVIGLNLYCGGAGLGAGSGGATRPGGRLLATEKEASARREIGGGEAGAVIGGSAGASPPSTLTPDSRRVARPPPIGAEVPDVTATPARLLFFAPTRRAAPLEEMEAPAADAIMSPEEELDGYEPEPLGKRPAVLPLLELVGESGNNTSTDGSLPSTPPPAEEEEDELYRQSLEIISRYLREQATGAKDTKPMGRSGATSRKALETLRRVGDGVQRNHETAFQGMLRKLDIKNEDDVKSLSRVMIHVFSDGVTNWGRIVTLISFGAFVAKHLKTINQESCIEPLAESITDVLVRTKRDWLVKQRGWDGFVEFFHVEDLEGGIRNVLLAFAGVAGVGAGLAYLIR

With `CCC(C)N1C(=O)/C(=C/c2ccc3c(c2)CCN3CCCCl)C(=O)NC1=S` (stereo not drawn) as the compound, how does the IC50 [1] read?
The IC50 was 5.31 µM (active).

Which AC50 [2] does the source give for `Cc1cc(C)c(-c2csc(NC(=O)CCCc3nc(O)c4ccccc4n3)n2)c(C)c1` here?
Its AC50 is 2.97 µM (active).

What about the AC50 [3] of the same compound?
The AC50 was > 70 µM (inactive).

And the AC50 [4]?
The AC50 was 5.38 µM (active).

With `Cc1onc(-c2ccccc2Cl)c1C(=O)N1CCN(C/C=C/c2ccccc2)CC1` as the compound, how does the EC50 [5] read?
The EC50 was 5.96 µM (active).

For `CC1Sc2ccc(S(=O)(=O)N3CCC(C(=O)Nc4cccc(Cl)c4)CC3)cc2NC1=O` (stereo not drawn), which AC50 [2] is on record?
The AC50 was 3.27 µM (active).

And the AC50 [3]?
The AC50 was 44.6 µM (active).

What about the AC50 [4] of the same compound?
Its AC50 is 8.77 µM (active).

For `CCOc1ccccc1CN1CCNC(=O)C1CC(=O)N(C)CCc1ccccn1` (stereo not drawn), which EC50 [5] is on record?
The EC50 was 2.11 µM (active).

Which IC50 (Leucine aminopeptidase) does the source give for `CC(Sc1ccc2c(c1)OCCO2)C(=O)Nc1ncc(Cl)cc1Cl` (stereo not drawn) here?
Its IC50 is 3.8 µM (active).

What about the IC50 [6] of the same compound?
Its IC50 is > 66 µM (inactive).

And the IC50 [7]?
Its IC50 is > 66 µM (inactive).

For `Nc1nc(SCc2nc(-c3ccccc3)no2)[nH]c(=O)c1-c1ccccc1`, which IC50 (Leucine aminopeptidase) is on record?
The IC50 was 7.2 µM (active).

Which EC50 [8] does the source give for `CC1=NN(C(N)=S)C(=O)C1N=Nc1cccc(C(=O)O)c1` (stereo not drawn) here?
The EC50 was 35.1 µM (active).

What about the EC50 [9] of the same compound?
The EC50 was 22.7 µM (active).

And the AC50 (HEK293)?
Its AC50 is 33.1 µM (active).

With `CC1Cc2ccccc2N1c1ncnc(N)c1[N+](=O)[O-]` (stereo not drawn) as the compound, how does the AC50 (HEK293) read?
Its AC50 is 2.41 µM (active).

Which IC50 (Leucine aminopeptidase) does the source give for `CCOC(=O)Cc1csc(NC(=O)NC2(C(F)(F)F)Oc3cc(Cl)c(Cl)cc3O2)n1` here?
The IC50 was 27.7 µM (active).

And the EC50 [10]?
Its EC50 is > 195 µM (not active).

Which results are given for `Cc1ccccc1OCC(=O)NNC(=S)NC(=O)c1ccco1`?
EC50 [11]: 0.599 µM (active); EC50 (Streptococcus): 2.45 µM (active); EC50 [5]: 9.44 µM (active)

Which IC50 (Leucine aminopeptidase) does the source give for `CC1SC(C)C(=O)N(CC(=O)NCc2ccc(F)cc2)C1=O` (stereo not drawn) here?
The IC50 was 31.4 µM (active).
